Source: article PMC10722499, “Consumption of Roasted Coffee Leads to Conjugated Metabolites of Atractyligenin in Human Plasma” (Journal of Agricultural and Food Chemistry, 2023)
Read-outs that look alike come from different tables or passages of the source.

Assay: Human coffee intervention study: plasma concentrations after roasted coffee brew by UPLC-MS/MS
Assay type: in vivo
Conditions: for samples above the LLOQ: n = 10; for concentration at 1 h / concentration at 4 h / concentration at 10 h: human, plasma
Method: The study included ten volunteers (5 females, 5 males) (age: 28.3 ± 2.3 years; BMI: 21.89 ± 2.22 kg/m^2). The intervention study took place from November 5, 2021, to February 17, 2022, in the core facility human studies of the ZIEL Institute for Food and Health of the Technical University of Munich. The study was performed in agreement with the Declaration of Helsinki, and all participants gave written informed consent. The study was approved by the Ethics Committee of the Technical University of Munich (5798/13 S-SR) and registered in the German Register of Clinical Studies (DRKS00005083).
The study participants underwent a dietary protocol that excluded all forms of coffee consumption. Additionally, chocolate, black/green/white, mate tea, cola, energy drinks, and beauty products containing caffeine (e.g., shampoos, creams) were prohibited 1 week before the test day. Furthermore, the study participants received a standardized meal the evening before the test day. The meal was composed of pasta, margarine, and salt, and the amount of energy was calculated based on the participant’s basal energy demand. On the morning of the test day, the participants were in a fastened state and received water (control samples) or coffee brew (coffee intervention) as breakfast. Blood was sampled before coffee intake (0 h) and at defined time points (1, 4, and 10 h) after coffee intake. 6 h after the coffee intake, the participants received lunch, the same standardized meal as the previous dinner. The administered coffee was prepared from a coffee capsule (Nespresso, ROMA) with 100 mL water. The administered volume of the coffee brew was 200 mL. Based on the coffee powder per capsule ([…]), the concentrations of 2 (2.8 μmol/g) and 3 (1.1 μmol/g), respectively,[10] and an estimated extraction rate of 100%, the total ingested amounts were 33.6 μmol (2) and 13.2 μmol (3).
In an Eppendorf tube (1.5 mL), aliquots (50 μL each) of the calibration standard, sample, or QC, respectively, were mixed with the IS solution (1000 nM in ethanol, 50 μL) and acetonitrile/ethanol (9 + 1, v + v, 50 μL) was added. After vortexing, suspensions were cleared by centrifugation (12,000 rpm, 4 °C, 10 min), and the supernatant (∼100 μL) was transferred to an HPLC vial with 200 μL insert for analysis (5 μL injection).
The UPLC–MS/MS system consisted of a Shimadzu Nexera X2 UPLC system (Shimadzu, Duisburg, Germany) hyphenated to a QTrap 5500 MS/MS system (Sciex, Darmstadt, Germany) operating in negative electrospray (ESI^–) mode with the following ion source parameters: ion spray voltage: −4500 V; source temperature: 500 °C; nebulizer gas: 55 psi; heater gas: 65 psi; and curtain gas: 35 psi. The MS/MS parameters, including the collision cell entrance potential (CEP), declustering potential (DP), collision energy (CE), and cell exit potential (CXP), were tuned for each compound and mass transition and are summarized in Supporting Table S3. The dwell time for each compound was 30 ms, and the total cycle time was 0.75 s. Chromatographic separation was achieved on a C18 column (Kinetex C18, 100 mm × 2.1 mm, 1.7 μm, Phenomenex, Aschaffenburg, Germany) at a flow rate of 500 μL/min flow rate. Eluent A was 0.1% formic acid in water, and eluent B was 0.1% formic acid in acetonitrile. B was kept at 3% (1 min), increased to 25% (in 3 min), 90% (in 2 min, 1 min isocratic), and 3% (0.5 min, 2.5 min isocratic). The total time of the analysis was 10 min. The column effluent was introduced from the waste to the MS/MS system between 3 and 7 min.
We applied this method to human plasma samples from a coffee intervention study to investigate the appearance of coffee compounds 1–3 and metabolites M1–M3. Ten participants underwent a washout period (7 days) and then consumed one dose of […]. Blood samples were taken at baseline (0 h) and 1, 4, and 10 h after the intervention. […]

Compound: C=C1C2CCC3C4(C)CC(O)CC(C(=O)OC5OC(C(=O)O)C(O)C(O)C5O)C4CCC3(C2)C1O [M1, atractyligenin-19-O-β-D-glucuronide]
- plasma level at baseline (0 h, before coffee intake, human plasma): no peaks were detected
- plasma concentration, mean ± SD (4 h after coffee brew (200 mL), human plasma, values above LLOQ): 11.7 ± 10.7 nM
- samples above the LLOQ (4 h after coffee): 80%
- plasma concentration, mean ± SD (10 h after coffee brew (200 mL), human plasma, values above LLOQ): 13.1 ± 5.8 nM
- samples above the LLOQ (10 h after coffee): 90%
- concentration at 1 h (both sexes, oral, 200 mL, 1 h after coffee brew (200 mL), human plasma, values above LLOQ, read-out: plasma concentration, mean ± SD): 25.1 ± 4.9 nM
- concentration at 4 h (both sexes, oral, 200 mL, 4 h after coffee brew (200 mL), human plasma, values above LLOQ, read-out: plasma concentration, mean ± SD): 14.2 ± 10.5 nM
- concentration at 10 h (both sexes, oral, 200 mL, 10 h after coffee brew (200 mL), human plasma, values above LLOQ, read-out: plasma concentration, mean ± SD): 14.4 ± 4.4 nM
- Cmax (both sexes, oral, human plasma after coffee brew (200 mL), n = 10, mean ± SD, read-out: estimated cmax in plasma): 25.1 ± 4.9 nM
- time of estimated cmax (human plasma after coffee brew (200 mL), sampling only at 0, 1, 4, 10 h): 1 h
- concentration at 4 h (oral, 200 mL coffee brew, participant xrwz, 4 h after coffee, b = below LLOQ, read-out: plasma concentration, individual): 1.7 nM
- concentration at 1 h (oral, 200 mL, participant ayia, 1 h after coffee, read-out: plasma concentration, individual): 16.4 nM
- concentration at 4 h (oral, 200 mL, participant ayia, 4 h after coffee, b = below LLOQ, read-out: plasma concentration, individual): 1.7 nM
- concentration at 10 h (oral, 200 mL, participant ayia, 10 h after coffee, read-out: plasma concentration, individual): 17.2 nM
- concentration at 1 h (oral, 200 mL, participant cbdu, 1 h after coffee, b = below LLOQ, read-out: plasma concentration, individual): 24.6 nM
- concentration at 4 h (oral, 200 mL, participant cbdu, 4 h after coffee, read-out: plasma concentration, individual): 2.9 nM
- concentration at 10 h (oral, 200 mL, participant cbdu, 10 h after coffee, read-out: plasma concentration, individual): 17.8 nM
- concentration at 1 h (oral, 200 mL, participant eogo, 1 h after coffee, b = below LLOQ, read-out: plasma concentration, individual): 30 nM
- concentration at 4 h (oral, 200 mL, participant eogo, 4 h after coffee, b = below LLOQ, read-out: plasma concentration, individual): 4.6 nM
- concentration at 10 h (oral, 200 mL, participant eogo, 10 h after coffee, b = below LLOQ, read-out: plasma concentration, individual): 12.3 nM
- concentration at 1 h (oral, 200 mL, participant ggot, 1 h after coffee, read-out: plasma concentration, individual): 32.2 nM
- concentration at 4 h (oral, 200 mL, participant ggot, 4 h after coffee, b = below LLOQ, read-out: plasma concentration, individual): 9.7 nM
- concentration at 10 h (oral, 200 mL, participant ggot, 10 h after coffee, b = below LLOQ, read-out: plasma concentration, individual): 1.7 nM
- concentration at 1 h (oral, 200 mL, participant imhz, 1 h after coffee, read-out: plasma concentration, individual): 30.6 nM
- concentration at 4 h (oral, 200 mL, participant imhz, 4 h after coffee, read-out: plasma concentration, individual): 10.5 nM
- concentration at 10 h (oral, 200 mL, participant imhz, 10 h after coffee, read-out: plasma concentration, individual): 21.5 nM
- concentration at 1 h (oral, 200 mL, participant mgjj, 1 h after coffee, read-out: plasma concentration, individual): 23.6 nM
- concentration at 4 h (oral, 200 mL, participant mgjj, 4 h after coffee, read-out: plasma concentration, individual): 12.4 nM
- concentration at 10 h (oral, 200 mL, participant mgjj, 10 h after coffee, read-out: plasma concentration, individual): 17.5 nM
- concentration at 1 h (oral, 200 mL, participant rrmk, 1 h after coffee, read-out: plasma concentration, individual): 22 nM
- concentration at 4 h (oral, 200 mL, participant rrmk, 4 h after coffee, b = below LLOQ, read-out: plasma concentration, individual): 19.7 nM
- concentration at 10 h (oral, 200 mL, participant rrmk, 10 h after coffee, read-out: plasma concentration, individual): 14.4 nM
- concentration at 1 h (oral, 200 mL, participant wbqj, 1 h after coffee, b = below LLOQ, read-out: plasma concentration, individual): 27.5 nM
- concentration at 4 h (oral, 200 mL, participant wbqj, 4 h after coffee, b = below LLOQ, read-out: plasma concentration, individual): 36 nM
- concentration at 10 h (oral, 200 mL, participant wbqj, 10 h after coffee, b = below LLOQ, read-out: plasma concentration, individual): 8.5 nM
- concentration at 1 h (oral, 200 mL, participant wbvs, 1 h after coffee, read-out: plasma concentration, individual): 23.8 nM
- concentration at 4 h (oral, 200 mL, participant wbvs, 4 h after coffee, read-out: plasma concentration, individual): 17.8 nM
- concentration at 10 h (oral, 200 mL, participant wbvs, 10 h after coffee, read-out: plasma concentration, individual): 9.7 nM
- concentration at 1 h (oral, 200 mL, participant xrwz, 1 h after coffee, read-out: plasma concentration, individual): 20.2 nM
- concentration at 10 h (oral, 200 mL, participant xrwz, 10 h after coffee, b = below LLOQ, read-out: plasma concentration, individual): 10.5 nM
- participants in whom plasma concentration increased between 4 and 10 h (individual plots, after first maximum at 1 h): 60%
